From article doi:10.1101/2022.07.05.498881v1 (biorxiv, 2022)

biological target: T1, SARS-CoV-2 MPro (main protease, 3CL protease, Nsp5) (Severe acute respiratory syndrome coronavirus 2, UniProt P0DTD1); assay: fluorogenic NSP7 peptide cleavage, […] h preincubation, […] °C; assay type: biochemical; settings: not given
T1 construct: gene rep

| Compound | IC50 |
| --- | --- |
| O=Cc1cncc(C(=O)N2CCCC2c2cccc3ccccc23)c1 (centres unmarked) ['0292] | 100 µM |
| N#CC(C(=O)c1cccnc1)c1cc(F)cc(F)c1 (centres unmarked) ['0431] | 50 µM |
| CC1(Cc2ccc(F)cc2)CCCN1c1ncc(C=O)cn1 (centres unmarked) ['0892] | 140 µM |
| Cc1noc(CCCOc2c(C)cc(Br)cc2C=O)n1 ['2961] | 100 µM |
| O=Cc1ncc(Br)cc1OCc1ccc2c(c1)COC2 ['3620] | 55 µM |
| O=Cc1ccc(Br)cc1OCc1ccc(Cl)c([N+](=O)[O-])c1 ['4218] | > 200 µM |
| N#CC(C(=O)c1ccc([N+](=O)[O-])o1)c1cccnc1 (centres unmarked) ['5103] | 20 µM |
| O=Cc1cnc(N2CC(c3nc4ccccc4[nH]3)C2)nc1 ['5156] | 80 µM |
| O=C1CN(Cc2ccc(F)cc2)C(=O)N1c1cncc2ccccc12 ['5548] | 30 µM |
| O=C1N[C@@]2(CCc3ccccc32)C(=O)N1c1cncc2ccccc12 ['6111] | 25 µM |
| O=Cc1ncc(Br)cc1OCc1cc(Cl)cc(Br)c1 ['6117] | 7 µM |
| N#Cc1ccc(Br)c(COc2cc(Br)cnc2C=O)c1 ['6690] | 2 µM |
| Cc1c(C(=O)C(C#N)C(=O)Nc2ccccc2)nnn1-c1ccccc1 (centres unmarked) ['6792] | 100 µM |
| O=Cc1ncc(Br)cc1OCc1ccc(Cl)c([N+](=O)[O-])c1 ['7021] | 1 µM |
| O=Cc1ncc(Br)cc1OCc1ccc2ccccc2c1 ['7356] | 26 µM |
| O=Cc1ncc(Br)cc1OCc1cc(Br)ccc1Cl ['8252] | 6 µM |
| O=Cc1ncc(Br)cc1OCc1cccc([N+](=O)[O-])c1 ['9112] | 35 µM |
| O=Cc1ncc(Br)cc1OCc1ccc(Cl)c(Br)c1 ['9121] | 6 µM |
| Cc1ccc(COc2cc(Br)cnc2C=O)cc1[N+](=O)[O-] ['9218] | 12 µM |

| Compound | IC50 |
| --- | --- |
| O=Cc1ncc(Br)cc1OCc1cccc([N+](=O)[O-])c1Cl ['9220] | 33 µM |
| O=Cc1ncc(Br)cc1OCc1ccc(Cl)cc1 ['9313] | 22 µM |
| C[C@H]1CN(C(=O)Nc2cncc3ccccc23)Cc2ccccc2O1 [SG-0001] | 55 µM |
| COc1ccc(Br)cc1C(=O)C(=O)Nc1cncc(C)c1 [Z1355254448] | 110 µM |
| CSc1ccncc1NC(=O)C(=O)c1ccc(F)cc1 [Z1669286714] | 110 µM |
| Cn1cccc1C(=O)C(=O)Nc1cnccc1Oc1ccccc1 [Z2195811405] | ~200 µM |
| O=C1CCN(Cc2cccs2)C(=O)N1Cc1ccc[nH]c1=O [Z3535317212] | 29 µM |
| CC1(C)CN(C(=O)Nc2cncc3ccccc23)Cc2cc(Br)ccc2O1 [Z4924562413] | 13 µM |
| O=C1NC(c2cccc3ccccc23)C(=O)N1c1cncc2ccccc12 (centres unmarked) [Z4929615577] | 10 µM |
| CC1CCC2(NC(=O)N(c3cncc4ccccc34)C2=O)c2ccccc21 (centres unmarked) [Z4929616137] | 8 µM |
| O=C(Cc1cncc2ccccc12)N1CCOc2ccc(Cl)cc2C1 [Z4946671001] | 5 µM |
| Cc1ccc(F)cc1C(=O)C(=O)Nc1cncc(Br)c1C [Z5420225795] | 40 µM |
| COc1cc(C=O)c(OS(=O)(=O)CC2CCCCC2)cc1OC [ZINC271072260] | 143 µM |
| Cc1noc(C)c1CCCNc1nc(-c2ccncc2)nc2ccccc12 [ZINC301553312] | 63 µM |
| COC(=O)c1cc(C#N)c(=O)n(Cc2cccc(F)c2Cl)c1 [ZINC338540162] | 30 µM |
| O=C(Cc1cccnc1)N(Cc1ccccn1)c1ccc(Cl)cc1 [ZINC346371112] | 98 µM |
| CC1CN(C(=O)CCn2cc(Br)ccc2=O)Cc2ccccc2O1 (centres unmarked) [ZINC553840273] | 88 µM |
| Cc1cc(C(=O)C(=O)Nc2cnccc2F)ccc1F [ZINC5420738300] | 160 µM |

same assay, conditions: pH 7.4, 0.05% Tween-20, 1 mM DTT, substrate 12.7 μM (Km); DMSO stock; possibly covalent warhead; read-out: IC50[DMSO]

| Compound | IC50 |
| --- | --- |
| ZINC795258204 | 177 µM |
